This is an account of results in patent US7008954B1, “Th2 differentiation inhibitors” (Shionogi & Co., Ltd., priority 1999, dated 2006).

Assay [1] deals with differentiation from Th0 cells to Th2 cells. As to the kind of experiment: Inhibitory effect on induction of differentiation from Th0 cells to Th2 cells (DNP-As immunized mice, popliteal lymph node, intracellular cytokine FACS). It is filed as in vivo, BALB/c mice. Conditions: for increase in the % Th2 / increase in the Th2/Th1 ratio: BALB/c mice immunized with DNP-As; for % Th1 / % Th2 / Th2/Th1: BALB/c mice immunized with DNP-As/Alum, popliteal lymph node 6 days after immunization, n = 3. The protocol: Experiment 1 Inhibitory Effect on Induction of Differentiation from Th0 Cells to Th2 Cells
In an experiment to induce the differentiation from Th0 cells to Th2 cells, 9 to 11 week-old female mice of BALB/cCrSlc purchased from Japan SLC, Inc. or of BALB/cAnNCrj purchased from Charles River Japan, Inc. were used.
In an experiment to induce the differentiation from Th0 cells to Th2 cells, a DNP-As (dinitrophenylated Ascaris protein (porcine ascarid extract protein)) was used as an antigen, 10 μg of which and 250 μg of Alum (aluminum hydroxide adjuvant) in physiological saline in the final volume of 50 μl was injected into the soles of the both hind legs of each mouse, whereby effecting immunization. In a negative control group, each animal was treated similarly by an injection of 50 μl of physiological saline. 6 Days after injection, two popliteal lymph nodes were removed from right and left knees, and passed through a metal mesh (200 mesh size) in Hanks' balanced salt solution (HBSS) to prepare a cell suspension. In the group treated with physiological saline, preparations from two animals were combined and subjected to the experiment because of a small cell number. A compound according to the invention was suspended in 0.5% methylcellulose (MC) and 0.1 ml per 20 g mouse was given orally every day over a period from the day of immunization through the 5th day. The immunized vehicle control group and the negative control group were treated with the same volume of 0.5% MC.
Cells prepared from popliteal lymph nodes of these mice were suspended at 1−2×10^6 cells/ml (1–2 ml) in an RPMI 1640 medium (containing 10% fetal bovine serum—FBS and 50 μM 2-mercaptoethanol) and supplemented with PMA (Phorbol 12-Myristate 13-Acetate) at the final concentration of 50 ng/ml and 250 ng/ml A23187 (Ca ionophore) and then incubated at 37° C. in the presence of 5% CO2. After incubating for 4 hours, Brefeldin A was added at the final concentration of 10 μg/ml and the mixture was incubated further for 2 hours. The cells were recovered and washed twice with a staining buffer (PBS containing 1% FBS and 0.1% sodium azide) and suspended in 100 μl of the staining buffer containing 5 μg/ml of Fc Block (rat anti-mouse CD 16/CD32 purified monoclonal antibody, Pharmingen) and incubated on ice for 5 minutes to block the non-specific adsorption of the labeled antibody, and then combined with an equal volume of a Cy-Chrome-labelled rat anti-mouse CD4 monoclonal antibody (Pharmingen) which had been 200-fold diluted with the staining buffer and incubated on ice for 30 minutes. After washing three times with the staining buffer, the cells were suspended in PBS and combined with an equal volume of a fixation solution (4% p-formaldehyde) and incubated at 4° C. overnight, whereby effecting the fixation. The fixed cells thus obtained were washed twice with the staining buffer and suspended in a permeabilazation buffer (PBS containing 1% FBS, 0.5% saponin and 0.1% sodium azide) and incubated on ice for 10 minutes, and then each cell sample was recovered as being divided into two equal portions. Each portion was suspended in 100 μl of the permeabilazation buffer containing 5 μg/ml Fc Block and incubated on ice for 5 minutes to block the non-specific adsorption of the labeled antibody into the cells. One portion was combined with each 100 μl of an FITC-labelled rat anti-mouse IFNγ monoclonal antibody (Pharmingen) and a PE-labeled rat anti-mouse IL-4 monoclonal antibody (Pharmingen) each had been 50-fold diluted with the permeabilazation buffer and incubated on ice for 30 minutes. The other portion, serving as a control representing the non-specific adsorption of the labeled antibody, was combined with each 100 μl of each control antibody at the same concentration, i.e., an FITC-labelled rat IgG1κ purified antibody (Pharmingen) and a PE-labeled rat IgG1κ purified antibody (Pharmingen) to effect the similar staining. […]

Assay [2] relates to differentiation from Th0 cells to Th1 cells. The assay is described as follows: Effect on induction of differentiation from Th0 cells to Th1 cells (mice immunized with non-viable Mycobacterium tuberculosis, popliteal lymph node, intracellular cytokine FACS). The conditions noted are these: for % Th1 / % Th2: C57BL/6N mice immunized with non-viable Mycobacterium tuberculosis, popliteal lymph node 6 days after immunization, n = 3; for effect on the increase in the % Th1: CD4 positive T cells, popliteal lymph node, C57BL/6 mice immunized with non-viable Mycobacterium tuberculosis. The class given is in vivo, C57BL/6 mice. The protocol:
In an experiment to induce the differentiation from Th0 cells to Th1 cells, 8 week-old female mice of C57BL/6NCrj purchased from Charles River Japan, Inc. were used.
On the other hand, in an experiment to induce the differentiation from Th0 cells to Th1 cells, a non-viable Mycobacterium tuberculosis H37RA (DIFCO) was suspended in physiological saline, and 125 μg/50 μl was used for immunization as described above. In the group treated with physiological saline, the preparations from 4 animals were combined and subjected to the experiment.
Cells prepared from popliteal lymph nodes of these mice were suspended at 1−2×10^6 cells/ml (1–2 ml) in an RPMI 1640 medium (containing 10% fetal bovine serum—FBS and 50 μM 2-mercaptoethanol) and supplemented with PMA (Phorbol 12-Myristate 13-Acetate) at the final concentration of 50 ng/ml and 250 ng/ml A23187 (Ca ionophore) and then incubated at 37° C. in the presence of 5% CO2. After incubating for 4 hours, Brefeldin A was added at the final concentration of 10 μg/ml and the mixture was incubated further for 2 hours. The cells were recovered and washed twice with a staining buffer (PBS containing 1% FBS and 0.1% sodium azide) and suspended in 100 μl of the staining buffer containing 5 μg/ml of Fc Block (rat anti-mouse CD 16/CD32 purified monoclonal antibody, Pharmingen) and incubated on ice for 5 minutes to block the non-specific adsorption of the labeled antibody, and then combined with an equal volume of a Cy-Chrome-labelled rat anti-mouse CD4 monoclonal antibody (Pharmingen) which had been 200-fold diluted with the staining buffer and incubated on ice for 30 minutes. After washing three times with the staining buffer, the cells were suspended in PBS and combined with an equal volume of a fixation solution (4% p-formaldehyde) and incubated at 4° C. overnight, whereby effecting the fixation. The fixed cells thus obtained were washed twice with the staining buffer and suspended in a permeabilazation buffer (PBS containing 1% FBS, 0.5% saponin and 0.1% sodium azide) and incubated on ice for 10 minutes, and then each cell sample was recovered as being divided into two equal portions. Each portion was suspended in 100 μl of the permeabilazation buffer containing 5 μg/ml Fc Block and incubated on ice for 5 minutes to block the non-specific adsorption of the labeled antibody into the cells. One portion was combined with each 100 μl of an FITC-labelled rat anti-mouse IFNγ monoclonal antibody (Pharmingen) and a PE-labeled rat anti-mouse IL-4 monoclonal antibody (Pharmingen) each had been 50-fold diluted with the permeabilazation buffer and incubated on ice for 30 minutes. The other portion, serving as a control representing the non-specific adsorption of the labeled antibody, was combined with each 100 μl of each control antibody at the same concentration, i.e., an FITC-labelled rat IgG1κ purified antibody (Pharmingen) and a PE-labeled rat IgG1κ purified antibody (Pharmingen) to effect the similar staining. After washing three times with the cell membrane permeation buffer and twice with the staining buffer, the cells were suspended in 500 μl of the staining buffer and transferred through a nylon mesh into a FACS analysis tube.
The significant difference was analyzed by Dunnett multiple comparison test and Student t test.

[3] abbreviates: 2.5 mg/kg orally daily for 6 days.
The mark [4] stands for this setting: 10 mg/kg orally daily for 6 days.
The mark [5] stands for this setting: 40 mg/kg orally daily for 6 days.
Where [6] appears, read: 40 mg/kg orally for consecutive 6 days after immunization, CD4 positive T cells, popliteal lymph node.
Setting [7] is: 10 mg/kg orally for consecutive 6 days after immunization.

As for `CC(C)=CCNc1ccc(-c2cc(C)c(-c3ccc(OCC=C(C)C)nc3)cc2C)c(F)c1` [Compound I-6], in assay [1] (10 mg/kg or higher), the “increase in the % Th2” value is reported as “significantly inhibited” and the “increase in the Th2/Th1 ratio” value is “significantly inhibited”. Further, in assay [1] (setting [3]), the “% Th1” value turned out to be 0.70 ± 0.02%, the “% Th2” value was found to be 1.41 ± 0.10% and the Th2/Th1 was determined as 2.03 ± 0.20. Also, in assay [1] (setting [4]), the “% Th1” value was 0.54 ± 0.05%, the “% Th2” value was found to be 0.15 ± 0.01 % and the Th2/Th1 is listed as 0.29 ± 0.02. In addition, in assay [1] (setting [5]), the “% Th1” value stood at 0.66 ± 0.02%, the “% Th2” value is on record as 0.03 ± 0.03 % and the Th2/Th1 came to 0.04 ± 0.05. For the same compound, in assay [2] (40 mg/kg), the “% Th1” value is recorded as 1.03 ± 0.10% and the “% Th2” value is given as 0.03 ± 0.02%. In addition, the “effect on the increase in the % Th1” value in assay [2] is reported as “no effect”.

With `CC(C)=CCNc1ccc(-c2cc(C)c(-c3cnc(OCC=C(C)C)nc3)cc2C)c(F)c1` [Compound I-55], in assay [1] (setting [6]), the “increase in the % Th2” value is “significantly inhibited” and the “increase in the Th2/Th1 ratio” value was “significantly inhibited”. For the same compound, in assay [1] (setting [5]), the “% Th1” value came to 0.53 ± 0.05%, the “% Th2” value was found to be 0.05 ± 0.02 % and the Th2/Th1 came to 0.09 ± 0.03.

Turning to `COc1c(C)c(-c2ccc(NCC=C(C)C)cc2)c(C)c(C)c1-c1ccc(OCC=C(C)C)c(F)c1` [Compound I-80], in assay [1] (setting [6]), the “increase in the % Th2” value is recorded as “significantly inhibited” and the “increase in the Th2/Th1 ratio” value was “significantly inhibited”. Also, in assay [1] (setting [5]), the “% Th1” value worked out at 0.29 ± 0.03%, the “% Th2” value is 0.07 ± 0.03 % and the Th2/Th1 amounted to 0.27 ± 0.12. Also, in assay [2] (40 mg/kg), the “% Th1” value is listed as 0.93 ± 0.11% and the “% Th2” value amounted to 0.02 ± 0.04%. Moreover, the “effect on the increase in the % Th1” value in assay [2] is recorded as “no effect”.

As for `COc1c(C)c(-c2ccc(OCC=C(C)C)c(F)c2)c(C)c(C)c1-c1ccc(NCC=C(C)C)cc1` [Compound I-89], in assay [1] (setting [7]), the “increase in the % Th2” value is “significantly inhibited” and the “increase in the Th2/Th1 ratio” value is reported as “significantly inhibited”. Moreover, in assay [1] (setting [4]), the “% Th1” value was determined as 0.23 ± 0.02%, the “% Th2” value is on record as −0.04 ± 0.00 % and the Th2/Th1 is −0.19 ± 0.01. In addition, in assay [2] (10 mg/kg), the “% Th1” value came to 0.70 ± 0.20% and the “% Th2” value stood at 0.02 ± 0.06%. Besides, the “effect on the increase in the % Th1” value in assay [2] is given as “no effect”.

Consider `COc1c(C)c(-c2ccc(NCC=C(C)C)cc2)c(C)c(C)c1-c1ccc(OCC(F)(F)F)nc1` [Compound I-90], for which, in assay [1] (setting [6]), the “increase in the % Th2” value is “significantly inhibited” and the “increase in the Th2/Th1 ratio” value is “significantly inhibited”. Besides, in assay [1] (setting [5]), the “% Th1” value is listed as 0.40 ± 0.02%, the “% Th2” value was 0.08 ± 0.03 % and the Th2/Th1 is reported as 0.22 ± 0.09.

Consider `COc1c(C)c(-c2ccc(NCC=C(C)C)c(F)c2)c(OC)c(C)c1-c1ccc(NCC=C(C)C)nc1` [Compound I-102], for which, in assay [1] (setting [6]), the “increase in the % Th2” value is recorded as “significantly inhibited” and the “increase in the Th2/Th1 ratio” value is “significantly inhibited”. In assay [1] (setting [5]), the “% Th1” value came out at 0.34 ± 0.09%, the “% Th2” value is −0.01 ± 0.01 % and the Th2/Th1 is −0.05 ± 0.06. In assay [2] (40 mg/kg), the “% Th1” value was determined as 0.82 ± 0.16% and the “% Th2” value stood at 0.07 ± 0.04%. Moreover, the “effect on the increase in the % Th1” value in assay [2] is “no effect”.

Consider `CC(C)=CCNc1ccc(-c2cc(C)c(-c3cnc(OCC=C(C)C)nc3)cc2C)c(C)c1` [Compound I-132], for which, in assay [1] (setting [6]), the “increase in the % Th2” value was “significantly inhibited” and the “increase in the Th2/Th1 ratio” value is given as “significantly inhibited”. For the same compound, in assay [1] (setting [5]), the “% Th1” value amounted to 0.46 ± 0.07%, the “% Th2” value is on record as 0.05 ± 0.02 % and the Th2/Th1 stood at 0.12 ± 0.04.

Take `COc1c(C)c(-c2ccc(OCC(C)C)c(O)c2)c(C)c(C)c1-c1ccc(NCC=C(C)C)cc1` [Compound I-133]: in assay [1] (setting [6]), the “increase in the % Th2” value was “significantly inhibited” and the “increase in the Th2/Th1 ratio” value is on record as “significantly inhibited”. In assay [1] (setting [5]), the “% Th1” value was 0.45 ± 0.03%, the “% Th2” value is 0.20 ± 0.05 % and the Th2/Th1 was found to be 0.45 ± 0.09.
